Results as given in ChEMBL document CHEMBL1909046, “DrugMatrix in vitro pharmacology data”.
pIC50, pKi: −log10 of the molar value. *1 amine or outer side, *2 acyl side, *3 side chain or, on linkers, in order; H or OH if unused. Where a SMILES comes first, the peptide text is derived from it. Bridges are numbered along the chain shown (N, C = ends). Roman numbers before positions name the chains, in order. [ ]: non-standard residue; d: D form. Actinocin(1to9) = Cc1c2oc3c(C)ccc(C(=O)[*:2])c3nc-2c(C(=O)[*:1])c(N)c1=O; NMeV = CN[C@H](C(=O)O)C(C)C; Sar = CNCC(=O)O

What was measured:
[1] = biological target: T1, Neuropeptide Y receptor type 2 (Homo sapiens, UniProt P49146); format: cell membranes, Membrane; conditions: kan-ts; also: in other assays of this panel Not Active means under 50% inhibition at 10 µM
T1 sequence (P49146 whole entry): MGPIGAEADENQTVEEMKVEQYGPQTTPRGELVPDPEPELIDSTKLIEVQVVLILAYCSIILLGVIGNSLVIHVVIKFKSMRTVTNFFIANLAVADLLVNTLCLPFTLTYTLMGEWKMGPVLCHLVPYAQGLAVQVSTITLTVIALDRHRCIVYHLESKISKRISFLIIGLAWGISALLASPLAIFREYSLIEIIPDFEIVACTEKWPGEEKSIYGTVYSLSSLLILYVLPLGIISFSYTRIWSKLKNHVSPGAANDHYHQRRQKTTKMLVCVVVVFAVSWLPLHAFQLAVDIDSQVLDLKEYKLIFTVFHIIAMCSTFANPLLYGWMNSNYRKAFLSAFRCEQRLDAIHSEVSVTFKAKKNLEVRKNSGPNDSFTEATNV

Neutrophil elastase = biological target: T2, Neutrophil elastase (Homo sapiens, UniProt P08246); format: tissue-based;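 also: inhibition of neutrophil elastase enzyme activity, measured with a p-nitroanilide-linked peptide substrate; in other assays of this panel Not Active means under 50% inhibition at 10 µM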
T2 sequence (P08246 whole entry): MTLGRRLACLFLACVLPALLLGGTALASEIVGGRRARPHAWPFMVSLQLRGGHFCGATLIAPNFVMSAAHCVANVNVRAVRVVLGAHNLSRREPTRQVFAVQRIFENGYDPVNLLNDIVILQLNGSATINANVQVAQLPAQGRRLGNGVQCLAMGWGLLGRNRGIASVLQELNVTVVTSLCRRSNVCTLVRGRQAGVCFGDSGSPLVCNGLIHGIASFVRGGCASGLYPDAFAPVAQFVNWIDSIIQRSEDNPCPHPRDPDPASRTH

[2] = DRUGMATRIX: Calcium Channel Type L, Benzothiazepine radioligand binding (ligand: [3H] Diltiazem); format: cell membranes, Rattus norvegicus, Wistar, Brain, Membrane; conditions: Not Active = under 50% inhibition at 10 µM
[3] = biological target: T3, C-C chemokine receptor type 4 (Homo sapiens, UniProt P51679); format: cell membranes, Chem-1, Membrane; conditions: chem-1; also: in other assays of this panel Not Active means under 50% inhibition at 10 µM
T3 sequence (P51679 whole entry): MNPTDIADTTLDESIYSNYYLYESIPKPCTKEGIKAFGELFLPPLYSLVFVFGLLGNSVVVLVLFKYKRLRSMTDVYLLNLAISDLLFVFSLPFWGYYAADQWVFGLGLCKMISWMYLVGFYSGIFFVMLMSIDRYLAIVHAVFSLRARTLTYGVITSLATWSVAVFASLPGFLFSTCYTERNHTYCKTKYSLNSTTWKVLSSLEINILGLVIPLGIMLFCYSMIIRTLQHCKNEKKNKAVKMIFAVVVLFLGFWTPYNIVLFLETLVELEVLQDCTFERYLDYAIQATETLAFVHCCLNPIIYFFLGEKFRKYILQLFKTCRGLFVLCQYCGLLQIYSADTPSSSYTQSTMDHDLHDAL

[4] = biological target: T4, Alpha-2C adrenergic receptor (Homo sapiens, UniProt P18825); experiment: DRUGMATRIX: Adrenergic Alpha-2C radioligand binding (ligand: [3H] MK-912); format: cell membranes, Sf9, Membrane; conditions: for IC50: sf9
T4 sequence (P18825 whole entry): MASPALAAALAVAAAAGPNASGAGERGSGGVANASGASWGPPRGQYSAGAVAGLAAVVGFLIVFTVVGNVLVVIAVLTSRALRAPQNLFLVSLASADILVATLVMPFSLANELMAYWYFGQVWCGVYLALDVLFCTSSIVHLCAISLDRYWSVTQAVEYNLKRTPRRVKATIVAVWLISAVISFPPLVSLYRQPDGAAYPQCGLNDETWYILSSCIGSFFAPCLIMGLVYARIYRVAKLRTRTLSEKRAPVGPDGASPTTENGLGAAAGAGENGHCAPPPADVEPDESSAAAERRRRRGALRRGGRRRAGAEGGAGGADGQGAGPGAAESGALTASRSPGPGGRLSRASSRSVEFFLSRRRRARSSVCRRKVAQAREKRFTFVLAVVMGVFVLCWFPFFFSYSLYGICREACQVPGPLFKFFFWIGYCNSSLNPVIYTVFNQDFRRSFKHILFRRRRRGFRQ

[5] = biological target: Protein kinase C alpha type (Homo sapiens, UniProt P17252); format: cell-based; conditions: sf9;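 also: inhibition of PKCalpha kinase activity measured in an enzyme assay with histone as the phosphorylation substrate; in other assays of this panel Not Active means under 50% inhibition at 10 µM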
[6] = biological target: T5, Polyunsaturated fatty acid lipoxygenase ALOX15 (Oryctolagus cuniculus, UniProt P12530); experiment: biochemical; format: tissue-based, Reticulocytes; conditions: reticulocytes
T5 sequence (P12530 whole entry): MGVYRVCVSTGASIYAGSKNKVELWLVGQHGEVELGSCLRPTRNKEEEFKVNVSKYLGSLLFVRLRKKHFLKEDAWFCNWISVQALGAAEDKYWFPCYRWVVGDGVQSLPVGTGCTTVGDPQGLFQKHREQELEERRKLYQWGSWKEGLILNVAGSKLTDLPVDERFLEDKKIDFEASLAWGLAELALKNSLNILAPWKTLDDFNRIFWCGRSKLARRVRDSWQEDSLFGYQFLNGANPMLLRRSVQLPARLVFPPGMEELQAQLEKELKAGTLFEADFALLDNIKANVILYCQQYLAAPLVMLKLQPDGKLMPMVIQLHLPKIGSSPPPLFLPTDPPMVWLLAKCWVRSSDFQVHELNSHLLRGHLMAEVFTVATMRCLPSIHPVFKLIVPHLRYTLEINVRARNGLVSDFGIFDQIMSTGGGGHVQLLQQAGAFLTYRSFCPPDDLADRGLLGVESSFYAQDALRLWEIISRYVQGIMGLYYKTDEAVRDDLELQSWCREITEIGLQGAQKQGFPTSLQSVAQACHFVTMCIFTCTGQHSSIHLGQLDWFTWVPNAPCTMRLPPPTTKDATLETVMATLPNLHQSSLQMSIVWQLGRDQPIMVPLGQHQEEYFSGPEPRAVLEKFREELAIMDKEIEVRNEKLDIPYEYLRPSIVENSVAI

Compound	IC50 [1]	IC50 (Neutrophil elastase)	IC50 [2]	Ki [2]	IC50 [3]	IC50 [4]	IC50 [5]	IC50 [6]	pIC50 ([4]; read-out: IC50)	pKi ([4]; read-out: Ki)
CNCCc1ccccn1 [BETAHISTINE]	Not Active	Not Active	Not Active	Not Active	Not Active	Not Active	Not Active	Not Active		
CC(C)C(Br)C(=O)NC(N)=O (centres undefined) [BROMISOVALUM]	Not Active	Not Active	Not Active	Not Active	Not Active	Not Active	Not Active	Not Active		
CCCC1O[C@@H]2C[C@H]3[C@@H]4CCC5=CC(=O)C=C[C@]5(C)[C@H]4[C@@H](O)C[C@]3(C)[C@]2(C(=O)CO)O1 (some centres undefined) [BUDESONIDE]	Not Active	Not Active	Not Active	Not Active	Not Active	Not Active	Not Active	Not Active		
CC(NC(C)(C)C)C(=O)c1cccc(Cl)c1 (centres undefined) [BUPROPION]	Not Active	Not Active	Not Active	Not Active	Not Active	Not Active	Not Active	Not Active		
CN(Cc1ccc(C(C)(C)C)cc1)Cc1cccc2ccccc12 [BUTENAFINE]	Not Active	Not Active	Not Active	Not Active	Not Active	Not Active	Not Active	Not Active		
C[C@H](CS)C(=O)N1CCC[C@H]1C(=O)O [CAPTOPRIL]	Not Active	Not Active	Not Active	Not Active	Not Active	Not Active	Not Active	Not Active		
Cc1ccc(-c2cc(C(F)(F)F)nn2-c2ccc(S(N)(=O)=O)cc2)cc1 [CELECOXIB]	Not Active	Not Active	Not Active	Not Active	Not Active	Not Active	Not Active	Not Active		
O=C(O)CCCc1ccc(N(CCCl)CCCl)cc1 [CHLORAMBUCIL]	Not Active	Not Active	Not Active	Not Active	Not Active	Not Active	Not Active	Not Active		
C[C@H](CCC(=O)O)[C@H]1CC[C@H]2[C@@H]3[C@H](O)C[C@@H]4C[C@H](O)CC[C@]4(C)[C@H]3C[C@H](O)[C@]12C [CHOLIC ACID]	Not Active	Not Active	Not Active	Not Active	Not Active	Not Active	Not Active	Not Active		
Cc1cc(C2CCCCC2)n(O)c(=O)c1 [CICLOPIROX]	Not Active	Not Active	Not Active	Not Active	Not Active	Not Active	Not Active	Not Active		
CC1=C2C(=CO[C@H](C)[C@H]2C)C(O)=C(C(=O)O)C1=O [CITRININ]	Not Active	Not Active	Not Active	Not Active	Not Active	Not Active	Not Active	Not Active		
CC(C)(C)NCC(O)c1cc(Cl)c(N)c(Cl)c1 (centres undefined) [CLENBUTEROL]	Not Active	Not Active	Not Active	Not Active	Not Active	Not Active	Not Active	Not Active		
CC(C)(Oc1ccc(Cl)cc1)C(=O)O [CLOFIBRIC ACID]	Not Active	Not Active	Not Active	Not Active	Not Active	Not Active	Not Active	Not Active		
Clc1cccc(Cl)c1NC1=NCCN1 [CLONIDINE]	Not Active	Not Active	Not Active	Not Active	Not Active	Not Active	Not Active	Not Active		
Cc1cc(C(C#N)c2ccc(Cl)cc2)c(Cl)cc1NC(=O)c1cc(I)cc(I)c1O (centres undefined) [CLOSANTEL]	Not Active	Not Active	Not Active	Not Active	Not Active		Not Active	Not Active	5.15	6.00
Cc1onc(-c2ccccc2Cl)c1C(=O)N[C@@H]1C(=O)N2[C@@H]1SC(C)(C)[C@@H]2C(=O)O [CLOXACILLIN]	Not Active	Not Active	Not Active	Not Active	Not Active	Not Active	Not Active	Not Active		
CC1CC(OC(=O)C(O)c2ccccc2)CC(C)(C)C1 (centres undefined) [CYCLANDELATE]	Not Active	Not Active	Not Active	Not Active	Not Active	Not Active	Not Active	Not Active		
Cc1c2oc3c(C)ccc(C(=O)N[C@@H]4C(=O)N[C@H](C(C)C)C(=O)N5CCC[C@H]5C(=O)N(C)CC(=O)N(C)[C@@H](C(C)C)C(=O)O[C@@H]4C)c3nc-2c(C(=O)N[C@@H]2C(=O)N[C@H](C(C)C)C(=O)N3CCC[C@H]3C(=O)N(C)CC(=O)N(C)[C@@H](C(C)C)C(=O)O[C@@H]2C)c(N)c1=O [DACTINOMYCIN] (I: T[dV]P[Sar][NMeV] / II: T[dV]P[Sar][NMeV]; ester I:1-I:C, II:1-II:C; linker I:N-II:N via Actinocin(1to9))	Not Active	Not Active	Not Active	Not Active	Not Active	Not Active	Not Active	Not Active		
Cc1c(O)c(=O)ccn1C [DEFERIPRONE]	Not Active	Not Active	Not Active	Not Active	Not Active	Not Active	Not Active	Not Active		
CNCCCN1c2ccccc2CCc2ccccc21 [DESIPRAMINE]	Not Active	Not Active	Not Active	Not Active	Not Active	Not Active	Not Active	Not Active		
O=c1oc2ccccc2c(O)c1Cc1c(O)c2ccccc2oc1=O [DICUMAROL]	Not Active	Not Active	Not Active	Not Active	Not Active	Not Active	Not Active	Not Active		
